Measured values from US10231453B2, “5-substituted imidazole derivatives” (BAYER CROPSCIENCE AKTIENGESELLSCHAFT, priority 2015, dated 2019).

Legend:
[1] = tested on: Uromyces appendiculatus; assay: In vivo preventive test on Uromyces appendiculatus (bean rust), Examples G and R7; conditions: 264 h, 500 ppm of active ingredient, bean, preventive spray, evaluated 11 days after inoculation, read-out: efficacy
[2] = Measurement of LogP values by HPLC on reversed phase columns (EEC directive 79/831 Annex V.A8); type: physicochemical; conditions: method [a]: LC-UV, acidic range, 0.1% formic acid in water and acetonitrile as eluent; Table 1
Method: Measurement of Log P values was performed as outlined above.

[3] = tested on: Fusarium graminearum; assay: whole plant or invertebrate; type: in vivo; conditions: in Hordeum vulgare, 120 h, read-out: efficacy
[4] = tested on: Puccinia recondita; assay: In vivo preventive test on Puccinia recondita (brown rust on wheat), Examples C and R3; conditions: Puccinia recondita, 264 h; 500 ppm of active ingredient; wheat, preventive spray, evaluated 11 days after inoculation; read-out: efficacy
[5] = tested on: Fusarium nivale (var. majus); assay: In vivo preventive Fusarium nivale (var. majus) test (wheat), Example O; conditions: Microdochium nivale, 120 h, 500 ppm of active ingredient, preventive spray, evaluated 5 days after inoculation, read-out: efficacy
Text: After the spray coating has been dried, the plants are slightly injured by using a sandblast and afterwards they are sprayed with a conidia suspension of Fusarium nivale (var. majus).

[6] = tested on: Septoria tritici; assay: In vivo preventive test on Septoria tritici (leaf spot on wheat), Examples E, Q3 and R5; conditions: Zymoseptoria tritici, 576 h, 500 ppm of active ingredient; wheat, preventive spray, evaluated 24 days after inoculation; read-out: efficacy
[7] = tested on: Blumeria graminis fsp. hordei; assay: In vivo preventive Blumeria test (barley), Example K; conditions: 168 h, 500 ppm of active ingredient, preventive spray, evaluated 7 days after inoculation, read-out: efficacy
Text: After the spray coating has been dried, the plants are dusted with spores of Blumeria graminis fsp. hordei.

[8] = tested on: Pyrenophora teres; assay: In vivo preventive test on Pyrenophora teres (net blotch on barley), Examples D, Q2 and R4; conditions: Pyrenophora teres, 336 h, 500 ppm of active ingredient, preventive spray, evaluated 14 days after inoculation, read-out: efficacy
[9] = tested on: Sphaerotheca fuliginea; assay: In vivo preventive test on Sphaerotheca fuliginea (powdery mildew on cucurbits), Examples F and R6; conditions: Podosphaera fuliginea, 360 h; 500 ppm of active ingredient; gherkin, preventive spray, evaluated 15 days after inoculation; read-out: efficacy
[10] = tested on: Pyricularia oryzae; assay: whole plant or invertebrate; type: in vivo; conditions: 192 h, read-out: efficacy
[11] = tested on: Botrytis cinerea; assay: In vivo preventive test on Botrytis cinerea (grey mould) on gherkin, Examples B, Q1 and R2; conditions: Botrytis cinerea, 500 ppm of active ingredient, preventive spray, evaluated 4 to 5 days after inoculation, read-out: efficacy
[12] = tested on: Alternaria solani; assay: In vivo preventive Alternaria test (tomatoes), Example H; conditions: 72 h, 100 ppm of active ingredient, preventive spray, evaluated 3 days after inoculation, read-out: efficacy
[13] = tested on: Phakopsora pachyrhizi; assay: In vivo preventive Phakopsora test (soybeans), Example I; conditions: 168 h, 100 ppm of active ingredient, preventive spray, evaluated 7 days after inoculation, read-out: efficacy
[14] = tested on: Alternaria brassicae; assay: In vivo preventive test on Alternaria brassicae (leaf spot on radish), Examples A and R1; conditions: Alternaria brassicae, 144 h, 500 ppm of active ingredient, preventive spray, evaluated 6 days after inoculation, read-out: efficacy
[15] = tested on: Venturia inaequalis; assay: In vivo preventive Venturia test (apples), Example J; conditions: 240 h, read-out: efficacy
Method: After the spray coating has dried on, the plants are inoculated with an aqueous conidia suspension of the causal agent of apple scab (Venturia inaequalis) and then remain for 1 day in an incubation cabinet at approximately 20° C. and a relative atmospheric humidity of 100%.
The plants are then placed in a greenhouse at approximately 21° C. and a relative atmospheric humidity of approximately 90%.
The test is evaluated 10 days after the inoculation.

Compound	pest or weed control at 500 ppm [1]	chromatographic logP [2]	pest or weed control at 500 ppm [3]	pest or weed control at 500 ppm [4]	pest or weed control at 500 ppm [5]	pest or weed control at 500 ppm [6]	pest or weed control at 500 ppm [7]	pest or weed control at 500 ppm [8]	pest or weed control at 500 ppm [9]	pest or weed control at 500 ppm [10]	pest or weed control at 500 ppm [11]	pest or weed control at 100 ppm [12]	pest or weed control at 100 ppm [13]	pest or weed control at 500 ppm [14]	pest or weed control at 100 ppm [15]
N#Cc1cncn1CC(O)(Cc1ccc(F)c(F)c1)C1(Cl)CC1 (stereo not drawn) [Example I-109]	90 to 100%	2.78	90 to 100%	90 to 100%	80 to 89%	90 to 100%	90 to 100%	90 to 100%	90 to 100%						
OC(Cc1ccc(F)cc1F)(Cn1cncc1Cl)C1(Cl)CC1 (stereo not drawn) [Example I-126]	90 to 100%		90 to 100%	90 to 100%		90 to 100%	90 to 100%	90 to 100%	90 to 100%	90 to 100%	90 to 100%	90 to 100%	90 to 100%		
COC(=O)c1cncn1CC(O)(Cc1ccccc1Cl)C1(Cl)CC1 (stereo not drawn) [Example I-01]	90 to 100%	2.82		90 to 100%	70 to 79%	90 to 100%	90 to 100%	90 to 100%	90 to 100%					80 to 89%	
N#Cc1cncn1CC(O)(Cc1ccccc1C(F)(F)F)C1(Cl)CC1 (stereo not drawn) [Example I-88]	90 to 100%	3.15	90 to 100%	90 to 100%	80 to 89%	90 to 100%	90 to 100%	90 to 100%	90 to 100%						
OC(Cc1cc(Cl)ncc1Cl)(Cn1cncc1Cl)C1(Cl)CC1 (stereo not drawn) [Example I-17]	90 to 100%	2.18		80 to 89%		90 to 100%	70 to 79%	90 to 100%	90 to 100%	90 to 100%	80 to 89%	90 to 100%	90 to 100%	90 to 100%	90 to 100%
N#Cc1cncn1CC(O)(Cc1ccc(F)c(F)c1F)C1(Cl)CC1 (stereo not drawn) [Example I-103]	90 to 100%	2.92	90 to 100%	90 to 100%		90 to 100%	90 to 100%	80 to 89%	90 to 100%			80 to 89%	90 to 100%		80 to 89%
OC(Cc1ccncc1F)(Cn1cncc1Cl)C1(Cl)CC1 (stereo not drawn) [Example I-164]	90 to 100%	1.46		80 to 89%	80 to 89%	90 to 100%	90 to 100%	80 to 89%	90 to 100%	70 to 79%	90 to 100%				
